{"source": "patent US12097232B1", "about": "“Method of preventing cadmium-induced renal toxicity using a plant product derived from Achillea millefolium L” (KING FAISAL UNIVERSITY, priority 2024, dated 2024)", "type_in_all_cases": "in vivo, Wistar rats", "key": {"[1]": {"test_system": "kidney function biomarkers (BUN, uric acid, creatinine, NAG)", "experiment": "Kidney function biomarkers in CdCl2-induced renal toxicity", "method": "(§1) Thirty-two adult male Wistar rats (8-9 weeks old, weighing, 160-180 g) were purchased from the Experimental Animal Research Centre, King Saud University, Riyadh, KSA.\n(§2) To study the renal protective activity of Achillea millefolium essential oil (AEO) on CdCl2-induced renal toxicity, rats were randomly divided into four groups (n=8 per group). Control rats were orally administered saline 1 h before injected intraperitoneally (i.p.) with 0.9% NaCl (physiological saline) daily for 5 days. The CdCl2 group was orally administered saline 1 h before injected i.p. with 6.5 mg/kg CdCl2 daily for 5 days. The AEO group was orally administered AEO (200 mg/kg) 1 h before injected with 0.9% NaCl (physiological saline) daily for 5 days. The AEO+CdCl2 group was orally administered AEO (100 mg/kg) 1 h before injected 6.5 mg/kg CdCl2 i.p. daily for 5 days. CdCl2 was dissolved in physiological saline.\n(§3) Rats were euthanized (decapitation) 24 hours after the final dosing. The kidneys were dissected, weighed to obtain the weight and then divided into 2 parts. The 1st part was homogenized in ice-cold 10 mM phosphate buffer (pH 7.4) to produce a 10% (w/v) homogenate for biochemical analysis. The 2nd part was kept at −80° C. for quantitative real-time qRT-PCR.\nBiomarkers of kidney function, i.e., Blood urea nitrogen (BUN), uric acid, and creatinine, were evaluated by using specific commercial kits. N-acetyl-β-D-glucosaminidase (NAG) is a marker of tubular toxicity was assessed using ELISA kit."}, "[2]": {"test_system": "Caspase 3, Caspase 9, Bax, Bcl2", "conditions": "CdCl2 renal injury vs control", "method": "as §1, §2, §3\n(§4) Gene expression for the TLR pathway, High-mobility group box 1 (HMBG1), Toll-Like Receptor 4 (TLR4), myeloid differentiation primary response gene 88 (MYD88), and Nuclear factor kappa B (NFκB) were quantified via real-time PCR (qPCR) consuming the primers' sequences, shown in Table 1, in agreement with the method described elsewhere. Briefly, RNA was isolated and purified using a Trizol reagent kit (Invitrogen, Carlsbad, CA, USA), then a reverse transcription polymerase chain reaction (RT-PCR) kit (TaKaRa, Kusatsu, Shiga, Japan) to reverse transcription reaction following the manufacturer's procedures. qPCR was applied using a SYBR ExScript RT-PCR kit, and quantification examinations were accomplished via an Opticon-2 Real-time PCR reactor (MJ Research, Capital Court, Reno, NV, USA). qPCR results were obtained using Step PE Applied Biosystems (Waltham, MA, USA) software. Relative gene expression data were calculated as mentioned earlier by the Livak and Schmittgen method (2−^ΔΔCq2) and presented as a fold change.\nThe actions of AEO administration on the apoptotic markers, such as caspase-3 and caspase 9 were evaluated."}, "[3]": {"experiment": "Kidney weight in CdCl2-induced renal toxicity rats", "method": "as §1\nAll the animals were maintained with typical laboratory food and water ad libitum in a ventilated cage system (12 h light/dark cycle, 20.3-23.1° C.) throughout the whole experiment.\nas §2\n(§5) Rats were euthanized (decapitation) 24 hours after the final dosing. The kidneys were dissected, weighed to obtain the weight and then divided into 2 parts. […] The 2nd part was kept at −80° C. for quantitative real-time qRT-PCR."}, "[4]": {"test_system": "MDA, SOD, CAT, GPx, GSH", "experiment": "Renal oxidative stress markers in Cd-induced renal toxicity", "method": "as §1, §2, §3\nLipid peroxidation was assessed according to the amount of malondialdehyde (MDA). The content of reduced glutathione (GSH) was evaluated and the activities of Catalase (CAT), Superoxide dismutase (SOD) and glutathione peroxidase (GPx) were estimated using kits."}, "[5]": {"test_system": "HMGB1, TLR4, MYD88, NFκB gene expression", "conditions": "renal", "method": "as §1, §2, §3, §4"}, "[6]": {"experiment": "Cd concentration in renal tissue by atomic absorption spectrophotometry", "method": "as §1, §2, §5\nThe Cd concentrations in renal tissues were estimated as mentioned before. […] The levels of metal were measured by atomic absorption spectrophotometry in a graphite furnace at 228.8 nm. The Cd values are expressed as microgram per gram of wet renal tissue."}, "[7]": {"test_system": "TNF-α, IFN-γ, MCP-1, IL-10", "experiment": "Renal inflammatory mediators by ELISA in Cd-induced renal toxicity", "conditions": "CdCl2 group vs control", "method": "as §1, §2, §3\nInflammation markers including interferon gamma (IFN-γ), monocyte chemoattractant protein-1 (MCP-1), tumor necrosis factor alpha (TNF-α), and interleukin 10 (IL-10) were measured using ELISA kits."}, "[8]": {"conditions": "CdCl2 group: CdCl2 6.5 mg/kg i.p. daily 5 days, mean ± SD"}, "[9]": {"conditions": "renal, CdCl2 administered rats vs control"}, "[10]": {"conditions": "Cd experienced animals vs control"}}}
{"molecule": "[Cl][Cd][Cl]", "note": "[CdCl2]", "values": [{"measurement": "BUN level (in words)", "setting": "[1]; Cd-exposed rats vs control", "value": "increases"}, {"measurement": "serum creatinine level (in words)", "setting": "[1]; Cd-exposed rats vs control", "value": "increases"}, {"measurement": "uric acid level (in words)", "setting": "[1]; Cd-exposed rats vs control", "value": "increases"}, {"measurement": "BUN", "setting": "[1]; [8]", "value": "40.66 ± 3.15", "unit": "mg/dL"}, {"measurement": "NAG", "setting": "[1]; [8]", "value": "33.2 ± 6.8", "unit": "mIU/ml"}, {"measurement": "Uric acid", "setting": "[1]; [8]", "value": "4.54 ± 0.15", "unit": "mg/dL"}, {"measurement": "Creatinine", "setting": "[1]; serum, CdCl2 group: CdCl2 6.5 mg/kg i.p. daily 5 days, mean ± SD", "value": "0.68 ± 0.01", "unit": "mg/dL"}, {"measurement": "caspase 3 renal content", "setting": "[2]", "value": "augmented"}, {"measurement": "caspase 9 renal content", "setting": "[2]", "value": "augmented"}, {"measurement": "Bax gene expression", "setting": "[2]; renal", "value": "augmented"}, {"measurement": "Bcl2 gene expression", "setting": "[2]; renal", "value": "diminished"}, {"measurement": "kidney weight (in words)", "setting": "[3]; CdCl2 group vs control", "value": "reduction in kidney weight"}, {"measurement": "Kidney wt.", "setting": "[3]; [8]", "value": "1.43 ± 0.11", "unit": "g"}, {"measurement": "renal GSH content", "setting": "[4]; CdCl2 group vs control", "value": "obvious reduction"}, {"measurement": "CAT activity", "setting": "[4]; [9]", "value": "considerably declined"}, {"measurement": "GPx activity", "setting": "[4]; [9]", "value": "considerably declined"}, {"measurement": "SOD activity", "setting": "[4]; [9]", "value": "considerably declined"}, {"measurement": "MDA level (lipid peroxidation)", "setting": "[4]; renal, CdCl2 group vs control", "value": "augmented"}, {"measurement": "HMGB1 mRNA expression level", "setting": "[5]; Cd administered rats vs control", "value": "increased"}, {"measurement": "MYD88 mRNA expression", "setting": "[5]; [10]", "value": "amplified significantly"}, {"measurement": "TLR4 mRNA expression", "setting": "[5]; [10]", "value": "amplified significantly"}, {"measurement": "nuclear NFκB p65 level", "setting": "[5]; Cd group vs control", "value": "significantly augmented"}, {"measurement": "Cd concentration in renal tissue (in words)", "setting": "[6]; CdCl2 group vs control", "value": "significantly increased"}, {"measurement": "Cd concentration", "setting": "[6]; [8]", "value": "0.95 ± 0.01", "unit": "μg/g renal tissue"}, {"measurement": "IFN-γ renal level", "setting": "[7]", "value": "amplified"}, {"measurement": "MCP-1 renal level", "setting": "[7]", "value": "amplified"}, {"measurement": "TNF-α renal level", "setting": "[7]", "value": "amplified"}, {"measurement": "IL-10 level", "setting": "[7]; renal", "value": "declined"}]}
